{
  "source": "paper PMC3857490",
  "about": "“Discovery of a metabolic alternative to the classical mevalonate pathway” (eLife, 2013)",
  "molecules": {"B1": {"name": "PMK from S. solfataricus (Saccharolobus solfataricus P2) (protein)", "chain": "MIKVSAPGKILWIGSYSVVFGGISHVIAVNKRVSCSLREIKEKDSLIFHTSYGHFKNSGNELINSVLDTFRERLSQLPQGYEIDLYNDKEFIIDGKKTGLGSSSAATVSLTACLYYAIHGKLDLFEIHKLAQIANYKRQKGIGSGFDIASAVFGSIVYKRFTDLDKMDFYFEKLNLGNYDMMLGFTGKSSETVGLVRKFVEKSNLDDFKEIMRLIDEENYMAIKLIKLNKLDEAVEHIKLGRKYLNYIAERIVGVKLVSKMEEELIKIAEEEGALVALSPGAGGGDSIFALGNDLNRVREAWSKRGIFIIDVKEDEGLRLESN", "notes": "full length, N-terminal thrombin-cleavable 8-His tag (pET28a), E. coli BL21(DE3)"}, "B2": {"name": "MPD from R. castenholzii (annotated MDD) (Roseiflexus castenholzii DSM 13941) (protein)", "chain": "MYHRPLERMPGLATAIPAPYADLVERMATADADLRAALRAHGLTWEEYPDLTGAARERGAAAALAYPMQGVLKYHGLSDWDYRIAFLPSVSLCNDAGHTLTLVEFDPDLATDCATINGHVARGRELERVRQSLDAIRAASGATVRARVMSRNVTRGTRMGKGLGSSAAASAALALAAIAALYGDEAAANRRLVSCMARLLAGSGCRSAAGGCSIWFSSPGMPHEDSFAVRLDDAGQLDDVRLITVPLDSRIGLKTEQAHLDAPGSALFRCWMLSRRDEALACIAAARTGDWRTLGQWAELDSMRLHGITMSGSLENKLIGWEPENIVLFRMCNDLRSSGVPVYCSTDTGPTAVFITHRDYEDAVVSAIEGLGLSLEAIRGRVAGPARLVDIAWAGGELGVAD", "notes": "synthetic gene, 9-His tag removed with thrombin, E. coli BL21(DE3), Mono Q and Superdex 200"}},
  "experiment_in_all_cases": "pyruvate kinase-lactate dehydrogenase coupled assay",
  "key": {"[1]": {"target": "T1, PMK from S. solfataricus (Saccharolobus solfataricus, UniProt Q97UL6)", "T1 construct": "gene SSO2988; full length, N-terminal thrombin-cleavable 8-His tag (pET28a), E. coli BL21(DE3)", "T1 sequence (Q97UL6 1-323)": "B1 chain", "assay_type": "biochemical", "conditions": "co-substrate ATP; Ki from the fit of the substrate's own saturation curve (substrate inhibition); racemic (RS)-MVAP", "from_the_text": "(§1) pyruvate kinase-lactate dehydrogenase coupled assay on PMK from S. solfataricus"}, "[2]": {"target": "T2, MDD from A. thaliana (Arabidopsis thaliana, UniProt O23722)", "T2 construct": "gene MVD1; synthetic gene, thrombin-cleavable 9-His tag (pHIS9GW), E. coli BL21(DE3)", "T2 sequence (O23722 1-412)": "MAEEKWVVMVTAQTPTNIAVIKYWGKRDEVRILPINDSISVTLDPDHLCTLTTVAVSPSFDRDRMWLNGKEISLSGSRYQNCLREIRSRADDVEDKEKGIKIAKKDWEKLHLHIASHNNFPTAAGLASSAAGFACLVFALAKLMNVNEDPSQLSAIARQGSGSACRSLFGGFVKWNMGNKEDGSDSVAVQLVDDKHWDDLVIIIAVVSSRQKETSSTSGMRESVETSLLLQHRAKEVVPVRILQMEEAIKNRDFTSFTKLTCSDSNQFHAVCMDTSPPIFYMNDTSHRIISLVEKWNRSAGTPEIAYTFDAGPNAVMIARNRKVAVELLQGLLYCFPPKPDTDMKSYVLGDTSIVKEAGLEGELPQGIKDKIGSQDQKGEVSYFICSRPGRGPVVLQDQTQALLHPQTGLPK", "assay_type": "biochemical", "conditions": "co-substrate ATP; racemic (RS)-MVAPP", "from_the_text": "pyruvate kinase-lactate dehydrogenase coupled assay on MDD from A. thaliana"}, "[3]": {"target": "T3, IPK from A. thaliana (Arabidopsis thaliana, UniProt Q8H1F7)", "T3 construct": "synthetic gene, thrombin-cleavable 9-His tag (pHIS9GW), E. coli BL21(DE3)", "T3 sequence (Q8H1F7 1-332)": "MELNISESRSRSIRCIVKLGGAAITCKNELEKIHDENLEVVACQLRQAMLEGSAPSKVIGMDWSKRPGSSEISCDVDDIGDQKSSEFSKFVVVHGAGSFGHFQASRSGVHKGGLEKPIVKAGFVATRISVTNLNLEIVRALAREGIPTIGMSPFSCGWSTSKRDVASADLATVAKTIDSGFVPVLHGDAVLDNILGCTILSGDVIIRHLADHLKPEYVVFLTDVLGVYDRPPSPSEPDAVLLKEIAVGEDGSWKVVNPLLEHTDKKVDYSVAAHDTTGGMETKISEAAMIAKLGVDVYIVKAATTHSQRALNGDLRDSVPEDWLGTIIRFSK", "assay_type": "biochemical", "conditions": "co-substrate ATP; Ki from the fit of the substrate's own saturation curve (substrate inhibition); four IP concentrations, 2-100 µM"}, "[4]": {"target": "T4, IPK from T. adhaerens (Trichoplax adhaerens, UniProt B3RKZ8)", "T4 construct": "gene TRIADDRAFT_51825", "T4 sequence (B3RKZ8 1-281)": "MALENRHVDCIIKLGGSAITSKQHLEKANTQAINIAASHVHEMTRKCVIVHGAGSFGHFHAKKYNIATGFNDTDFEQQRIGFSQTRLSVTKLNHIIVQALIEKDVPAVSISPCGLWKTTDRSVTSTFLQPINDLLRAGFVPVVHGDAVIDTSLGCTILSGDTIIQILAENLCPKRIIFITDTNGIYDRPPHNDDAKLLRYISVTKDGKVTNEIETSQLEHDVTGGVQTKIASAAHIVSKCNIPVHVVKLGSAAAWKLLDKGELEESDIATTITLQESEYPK", "assay_type": "biochemical", "conditions": "co-substrate ATP; four IP concentrations, 2-100 µM"}, "[5]": {"target": "T5, IPK from B. floridae (Branchiostoma floridae, UniProt A0A9J7KY69)", "T5 construct": "gene LOC118413305", "T5 sequence (A0A9J7KY69 1-298)": "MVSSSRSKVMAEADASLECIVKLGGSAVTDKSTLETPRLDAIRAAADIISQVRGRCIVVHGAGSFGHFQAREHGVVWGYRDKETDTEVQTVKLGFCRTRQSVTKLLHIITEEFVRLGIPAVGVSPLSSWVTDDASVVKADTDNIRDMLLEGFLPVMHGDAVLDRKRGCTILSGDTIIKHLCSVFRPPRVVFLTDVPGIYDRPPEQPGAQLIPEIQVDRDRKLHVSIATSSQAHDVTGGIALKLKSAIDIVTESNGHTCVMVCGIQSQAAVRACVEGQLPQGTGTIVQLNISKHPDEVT", "assay_type": "biochemical", "conditions": "co-substrate ATP; fit with substrate inhibition"}, "[6]": {"target": "T5, IPK from B. floridae", "assay_type": "biochemical", "conditions": "co-substrate ATP; Ki from the fit of the substrate's own saturation curve (substrate inhibition)", "from_the_text": "pyruvate kinase-lactate dehydrogenase coupled assay on IPK from B. floridae"}, "[7]": {"substrate": "CC(O)(CCOP(=O)(O)O)CC(=O)O", "assay_type": "biochemical, Saccharolobus solfataricus", "conditions": "co-substrate ATP; racemic (RS)-MVAP; fit with substrate inhibition", "from_the_text": "as §1"}, "[8]": {"substrate": "CC(O)(CCOP(=O)(O)O)CC(=O)O", "assay_type": "biochemical, Roseiflexus castenholzii", "conditions": "co-substrate ATP, racemic (RS)-MVAP, below the organism's growth temperature (50 C and above)", "from_the_text": "pyruvate kinase-lactate dehydrogenase coupled assay on MPD from R. castenholzii (annotated MDD)"}},
  "data": [
    {"molecule": "CC(O)(CCOP(=O)(O)O)CC(=O)O", "note": "(racemic) [compound 3, phosphomevalonate]", "values": [
      {"measurement": "Ki (μM)", "setting": "[1]", "result": "5500 (± 2200) μM"}
    ]},
    {"molecule": "CC(O)(CCOP(=O)(O)OP(=O)(O)O)CC(=O)O", "note": "(racemic) [compound 5, diphosphomevalonate]", "values": [
      {"measurement": "Km", "setting": "[2]", "result": 15.7, "unit": "µM"}
    ]},
    {"molecule": "C=C(C)CCOP(=O)(O)O", "note": "[compound 4, isopentenyl phosphate]", "values": [
      {"measurement": "Ki (μM)", "setting": "[3]", "result": "522 (± 381) μM"},
      {"measurement": "Km", "setting": "[4]", "result": 3.1, "unit": "µM"},
      {"measurement": "Km", "setting": "[5]", "result": 13.3, "unit": "µM"},
      {"measurement": "Ki (μM)", "setting": "[6]", "result": "2820 (± 1700) μM"}
    ]},
    {"molecule": "B1", "values": [
      {"measurement": "Km", "setting": "[7]", "result": "23.1 (± 3.8) μM"},
      {"measurement": "kcat", "setting": "[7]", "result": "1.98 ± 0.1", "unit": "s⁻¹"},
      {"measurement": "kcat/Km", "setting": "[7]", "result": "90000 ± 10000", "unit": "M⁻¹ s⁻¹"}
    ]},
    {"molecule": "B2", "values": [
      {"measurement": "Km", "setting": "[8]", "result": "152 (± 38) μM"},
      {"measurement": "kcat", "setting": "[8]", "result": "1.7 ± 0.1", "unit": "s⁻¹"},
      {"measurement": "kcat/Km", "setting": "[8]", "result": "11000 ± 3000", "unit": "M⁻¹ s⁻¹"}
    ]}
  ]
}
